Laboratory results from ChEMBL document CHEMBL1150991, “Comparative molecular field analysis of benzopyran-4-carbothioamide potassium channel openers” (Bioorg Med Chem Lett, 1994).

Key:
Rattus norvegicus [1] = species on record: Rattus norvegicus; experiment: Molar concentration required to relax rat aorta precontracted with 30 mM KCL by 50% of intrinsic activity (calculated); assay type: functional
Rattus norvegicus [2] = species on record: Rattus norvegicus; experiment: Molar concentration required to relax rat aorta precontracted with 30 mM KCL by 50% of intrinsic activity; assay type: functional

| SMILES | EC50 (Rattus norvegicus [1]) [nM] | EC50 (Rattus norvegicus [2]) [nM] |
| --- | --- | --- |
| C/N=C(/S)C1=CC(C)(C)Oc2ccc(Cl)cc21 | 28.8 |  |
| C/N=C(/S)C1=CC(C)(C)Oc2ccc(C(F)(F)C(F)(F)F)cc21 | 11.7 |  |
| C/N=C(/S)C1=CC(C)(C)Oc2ccc([N+](=O)[O-])cc21 | 1.29 |  |
| C/N=C(/S)C1=CC(C)(C)Oc2ccc(S(C)(=O)=O)cc21 | 490 |  |
| CNC(=S)C1=CC(C)(C)Oc2ccc(C(=O)OC)cc21 | 85.1 | 95.5 |
| CCc1ccc2c(c1)C(/C(S)=N\C)=CC(C)(C)O2 | 282 |  |
| C/N=C(/S)C1=CC(C)(C)Oc2ccccc21 | 4470 |  |
| C/N=C(/S)C1=CC(C)(C)Oc2ccc(OC(F)(F)F)cc21 | 3.98 |  |
| C/N=C(/S)C1=CC(C)(C)Oc2ccc(Br)cc21 | 15.1 |  |
| C/N=C(/S)C1=CC(C)(C)Oc2ccc(C#N)cc21 | 21.4 |  |
| C/N=C(/S)C1=CC(C)(C)Oc2ccc(C(F)(F)F)cc21 | 2.19 |  |
| C/N=C(/S)C1=CC(C)(C)Oc2ccc(S(=O)(=O)c3ccccc3)cc21 | 19.5 |  |
| CNC(=S)C1=CC(C)(C)Oc2ccc(OC)cc21 | 457 |  |
